Assay results published in ChEMBL document CHEMBL1201862, “PubChem BioAssay data set” (2004).
Activity calls are given as the source filed them.

Experiments:
[1] = biological target: T1, Carboxy-terminal domain RNA polymerase II polypeptide A small phosphatase 1 (Homo sapiens, UniProt Q9GZU7); experiment: inhibitors of CTDSP1, concentration-response testing, biochemical assay, absorbance-based, actives from ultra-high-throughput screening (AID 540297); assay type: functional
T1 sequence (Q9GZU7 whole entry): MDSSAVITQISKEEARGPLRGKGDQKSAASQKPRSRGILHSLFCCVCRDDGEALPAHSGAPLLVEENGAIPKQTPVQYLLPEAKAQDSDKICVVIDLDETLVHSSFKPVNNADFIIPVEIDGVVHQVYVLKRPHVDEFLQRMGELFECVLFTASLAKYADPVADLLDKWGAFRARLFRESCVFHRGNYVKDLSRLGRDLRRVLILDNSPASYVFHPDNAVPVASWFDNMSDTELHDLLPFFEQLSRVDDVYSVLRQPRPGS

[2] = biological target: 26S proteasome non-ATPase regulatory subunit 14 (Homo sapiens, UniProt O00487); experiment: inhibition of proteasome subunit RPN11 – biochemical, fluorescence polarization, uHTS hits, confirmation (AID 602368); assay type: functional
26S proteasome non-ATPase regulatory subunit 14, sequence (O00487 whole entry): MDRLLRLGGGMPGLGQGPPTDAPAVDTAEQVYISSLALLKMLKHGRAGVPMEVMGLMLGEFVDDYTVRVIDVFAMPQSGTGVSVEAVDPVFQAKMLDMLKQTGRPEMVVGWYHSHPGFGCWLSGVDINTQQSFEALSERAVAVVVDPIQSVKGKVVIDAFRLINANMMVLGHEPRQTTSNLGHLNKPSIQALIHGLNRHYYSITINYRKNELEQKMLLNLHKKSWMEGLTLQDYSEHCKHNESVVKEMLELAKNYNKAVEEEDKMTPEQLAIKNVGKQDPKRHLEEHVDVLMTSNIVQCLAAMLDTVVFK

[3] = biological target: 72 kDa type IV collagenase (Homo sapiens, UniProt P08253); experiment: Dose Response validation of uHTS RPN11 inhibitor hits using a MMP-2 Fluorescence assay.; assay type: functional
72 kDa type IV collagenase, sequence (P08253 whole entry): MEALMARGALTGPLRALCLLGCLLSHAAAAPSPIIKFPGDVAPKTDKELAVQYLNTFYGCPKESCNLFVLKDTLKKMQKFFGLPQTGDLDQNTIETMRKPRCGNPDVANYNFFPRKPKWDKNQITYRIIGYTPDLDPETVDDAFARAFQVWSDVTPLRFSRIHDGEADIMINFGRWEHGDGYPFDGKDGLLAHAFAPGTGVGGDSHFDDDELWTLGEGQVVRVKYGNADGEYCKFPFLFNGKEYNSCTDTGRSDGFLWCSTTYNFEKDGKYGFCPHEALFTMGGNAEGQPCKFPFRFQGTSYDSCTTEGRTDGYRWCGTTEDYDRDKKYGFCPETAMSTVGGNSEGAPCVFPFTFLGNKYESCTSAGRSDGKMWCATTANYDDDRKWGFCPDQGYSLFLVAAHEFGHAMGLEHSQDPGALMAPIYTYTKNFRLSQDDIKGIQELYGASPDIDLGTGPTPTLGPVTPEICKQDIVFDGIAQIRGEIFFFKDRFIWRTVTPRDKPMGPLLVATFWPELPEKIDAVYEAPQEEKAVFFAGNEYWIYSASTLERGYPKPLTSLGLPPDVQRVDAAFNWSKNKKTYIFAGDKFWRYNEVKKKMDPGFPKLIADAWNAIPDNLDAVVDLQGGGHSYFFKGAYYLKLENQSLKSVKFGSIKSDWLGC

[4] = biological target: Prothrombin (Bos taurus, UniProt P00735); experiment: thrombin inhibition, dose response, biochemical, fluorescence polarization, uHTS hits (AID 602369); assay type: functional
[5] = biological target: T2, Replicative DNA helicase DnaB (Mycobacterium tuberculosis, UniProt P9WMR3); experiment: DnaB intein splicing inhibitors, dose response, biochemical, cell-free fluorescence (AID 449749); assay type: functional
T2 sequence (P9WMR3 whole entry): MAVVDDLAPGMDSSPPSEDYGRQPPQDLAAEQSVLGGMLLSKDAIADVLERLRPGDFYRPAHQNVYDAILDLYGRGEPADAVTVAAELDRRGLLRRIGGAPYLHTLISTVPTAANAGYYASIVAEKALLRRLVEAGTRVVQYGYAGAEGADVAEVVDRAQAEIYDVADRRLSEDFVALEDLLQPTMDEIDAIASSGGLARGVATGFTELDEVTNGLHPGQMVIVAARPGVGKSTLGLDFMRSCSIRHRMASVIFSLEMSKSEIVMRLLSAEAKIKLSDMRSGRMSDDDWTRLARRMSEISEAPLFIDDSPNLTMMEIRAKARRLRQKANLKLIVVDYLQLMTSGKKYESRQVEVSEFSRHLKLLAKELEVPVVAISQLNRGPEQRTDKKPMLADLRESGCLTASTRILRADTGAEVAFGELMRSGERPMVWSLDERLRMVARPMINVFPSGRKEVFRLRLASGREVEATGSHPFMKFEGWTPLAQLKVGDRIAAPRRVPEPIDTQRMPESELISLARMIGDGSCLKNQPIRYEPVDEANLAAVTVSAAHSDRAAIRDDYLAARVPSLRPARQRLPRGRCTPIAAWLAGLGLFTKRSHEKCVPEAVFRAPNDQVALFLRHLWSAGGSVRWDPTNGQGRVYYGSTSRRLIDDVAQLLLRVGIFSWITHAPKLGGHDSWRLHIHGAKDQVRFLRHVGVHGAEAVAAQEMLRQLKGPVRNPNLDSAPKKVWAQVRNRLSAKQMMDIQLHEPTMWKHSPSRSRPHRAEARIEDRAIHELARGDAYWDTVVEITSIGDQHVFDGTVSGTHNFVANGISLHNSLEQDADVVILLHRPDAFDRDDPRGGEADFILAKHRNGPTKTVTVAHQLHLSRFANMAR

[6] = biological target: T3, Protein RecA (Mycobacterium tuberculosis, UniProt P9WHJ3); experiment: Fluorescence Cell-Free Homogeneous Dose Retest to Identify Inhibitors of RecA-Intein Splicing Activity. [Related pubchem assays (depositor defined):AID2097, AID2223, AID489010, AID492950]; assay type: functional
T3 sequence (P9WHJ3 whole entry): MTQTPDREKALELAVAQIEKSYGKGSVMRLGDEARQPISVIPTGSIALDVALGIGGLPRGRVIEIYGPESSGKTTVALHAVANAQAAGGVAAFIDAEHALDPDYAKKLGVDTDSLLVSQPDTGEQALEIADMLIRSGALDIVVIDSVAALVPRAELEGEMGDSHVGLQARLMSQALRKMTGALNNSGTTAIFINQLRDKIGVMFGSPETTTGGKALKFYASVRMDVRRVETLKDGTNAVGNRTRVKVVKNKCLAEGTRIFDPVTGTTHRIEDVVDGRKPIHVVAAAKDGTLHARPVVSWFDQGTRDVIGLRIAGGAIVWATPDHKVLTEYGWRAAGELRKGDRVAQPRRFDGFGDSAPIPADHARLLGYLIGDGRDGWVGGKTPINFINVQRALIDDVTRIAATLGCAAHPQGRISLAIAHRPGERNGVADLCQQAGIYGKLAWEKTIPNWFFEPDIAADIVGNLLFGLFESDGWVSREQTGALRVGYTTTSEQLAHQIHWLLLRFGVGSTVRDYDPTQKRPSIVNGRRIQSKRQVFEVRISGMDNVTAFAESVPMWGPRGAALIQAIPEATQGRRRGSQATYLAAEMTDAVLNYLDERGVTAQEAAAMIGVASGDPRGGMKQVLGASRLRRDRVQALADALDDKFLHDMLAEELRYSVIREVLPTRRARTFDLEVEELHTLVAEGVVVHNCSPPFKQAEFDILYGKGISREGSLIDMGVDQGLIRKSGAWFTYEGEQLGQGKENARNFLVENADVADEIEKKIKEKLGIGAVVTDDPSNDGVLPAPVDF

[7] = biological target: T4, RNA-binding protein pos-1 (Caenorhabditis elegans, UniProt G5EF15); experiment: inhibitors of POS-1/mex-3 RNA binding, dose response, biochemical, fluorescence polarization (AID 1964);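 note: purified POS-1 fused to maltose binding protein made in E. coli; potency of compounds blocking POS-1 binding to fluorescent RNA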
T4 sequence (G5EF15 whole entry): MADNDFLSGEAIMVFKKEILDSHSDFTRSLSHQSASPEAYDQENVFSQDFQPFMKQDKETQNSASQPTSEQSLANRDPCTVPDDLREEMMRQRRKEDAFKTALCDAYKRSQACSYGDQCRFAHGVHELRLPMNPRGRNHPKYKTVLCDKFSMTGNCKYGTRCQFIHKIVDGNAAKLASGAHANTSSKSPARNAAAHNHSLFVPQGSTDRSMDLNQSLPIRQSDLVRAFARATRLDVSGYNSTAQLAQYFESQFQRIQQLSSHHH

[8] = biological target: DNA (cytosine-5)-methyltransferase 1 (Homo sapiens, UniProt P26358); experiment: DNMT1 methyltransferase inhibitors, confirmation, biochemical, fluorescent molecular beacon (AID 602386); assay type: functional
DNA (cytosine-5)-methyltransferase 1, sequence (P26358 whole entry): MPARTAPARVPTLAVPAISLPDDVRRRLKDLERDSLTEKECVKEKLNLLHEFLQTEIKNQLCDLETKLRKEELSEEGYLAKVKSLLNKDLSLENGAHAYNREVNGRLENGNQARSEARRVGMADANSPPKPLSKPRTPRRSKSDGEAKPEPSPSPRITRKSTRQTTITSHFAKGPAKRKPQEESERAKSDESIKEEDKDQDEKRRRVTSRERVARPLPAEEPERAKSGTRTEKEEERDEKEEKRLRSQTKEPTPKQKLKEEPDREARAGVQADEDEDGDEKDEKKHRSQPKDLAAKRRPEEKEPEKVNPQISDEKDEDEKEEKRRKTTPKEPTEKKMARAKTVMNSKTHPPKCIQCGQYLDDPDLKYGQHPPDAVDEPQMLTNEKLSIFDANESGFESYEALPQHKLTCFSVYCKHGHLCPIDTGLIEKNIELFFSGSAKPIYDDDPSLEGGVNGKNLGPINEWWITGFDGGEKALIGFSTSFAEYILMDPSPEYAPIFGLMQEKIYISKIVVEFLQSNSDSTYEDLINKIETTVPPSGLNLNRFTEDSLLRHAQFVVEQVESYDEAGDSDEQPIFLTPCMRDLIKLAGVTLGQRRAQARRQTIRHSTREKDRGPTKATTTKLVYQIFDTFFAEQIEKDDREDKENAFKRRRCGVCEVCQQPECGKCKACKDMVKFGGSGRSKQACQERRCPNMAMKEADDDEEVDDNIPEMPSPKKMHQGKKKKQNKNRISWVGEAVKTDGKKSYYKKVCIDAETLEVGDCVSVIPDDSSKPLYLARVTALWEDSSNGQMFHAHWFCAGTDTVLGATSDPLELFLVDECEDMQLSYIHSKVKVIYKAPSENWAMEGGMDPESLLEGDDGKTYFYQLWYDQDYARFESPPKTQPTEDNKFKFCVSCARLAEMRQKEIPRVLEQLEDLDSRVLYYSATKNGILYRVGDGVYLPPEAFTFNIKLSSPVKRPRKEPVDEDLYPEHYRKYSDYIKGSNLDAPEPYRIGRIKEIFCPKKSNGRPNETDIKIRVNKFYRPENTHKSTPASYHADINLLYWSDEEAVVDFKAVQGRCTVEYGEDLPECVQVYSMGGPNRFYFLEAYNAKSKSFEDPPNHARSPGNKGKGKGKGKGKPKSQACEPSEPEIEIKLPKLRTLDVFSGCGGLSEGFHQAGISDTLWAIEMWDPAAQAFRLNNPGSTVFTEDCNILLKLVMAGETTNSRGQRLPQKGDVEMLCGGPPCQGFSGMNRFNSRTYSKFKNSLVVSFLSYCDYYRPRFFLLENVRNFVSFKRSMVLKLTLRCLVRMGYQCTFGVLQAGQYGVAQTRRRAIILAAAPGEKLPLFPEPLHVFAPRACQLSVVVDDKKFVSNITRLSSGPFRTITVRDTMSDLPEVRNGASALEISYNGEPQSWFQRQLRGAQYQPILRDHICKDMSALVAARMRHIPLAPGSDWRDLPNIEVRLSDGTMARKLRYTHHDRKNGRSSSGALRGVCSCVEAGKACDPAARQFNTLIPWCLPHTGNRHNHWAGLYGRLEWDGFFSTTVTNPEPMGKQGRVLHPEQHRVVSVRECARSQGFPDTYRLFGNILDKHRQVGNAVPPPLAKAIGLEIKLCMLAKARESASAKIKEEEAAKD

[9] = biological target: T5, Rac GTPase-activating protein 1 (Homo sapiens, UniProt Q9H0H5); experiment: MgcRacGAP GTPase-activating activity inhibitors, confirmation, biochemical, ADP Hunter fluorescence, primary and confirmatory (AID 624330); assay type: functional
T5 sequence (Q9H0H5 whole entry): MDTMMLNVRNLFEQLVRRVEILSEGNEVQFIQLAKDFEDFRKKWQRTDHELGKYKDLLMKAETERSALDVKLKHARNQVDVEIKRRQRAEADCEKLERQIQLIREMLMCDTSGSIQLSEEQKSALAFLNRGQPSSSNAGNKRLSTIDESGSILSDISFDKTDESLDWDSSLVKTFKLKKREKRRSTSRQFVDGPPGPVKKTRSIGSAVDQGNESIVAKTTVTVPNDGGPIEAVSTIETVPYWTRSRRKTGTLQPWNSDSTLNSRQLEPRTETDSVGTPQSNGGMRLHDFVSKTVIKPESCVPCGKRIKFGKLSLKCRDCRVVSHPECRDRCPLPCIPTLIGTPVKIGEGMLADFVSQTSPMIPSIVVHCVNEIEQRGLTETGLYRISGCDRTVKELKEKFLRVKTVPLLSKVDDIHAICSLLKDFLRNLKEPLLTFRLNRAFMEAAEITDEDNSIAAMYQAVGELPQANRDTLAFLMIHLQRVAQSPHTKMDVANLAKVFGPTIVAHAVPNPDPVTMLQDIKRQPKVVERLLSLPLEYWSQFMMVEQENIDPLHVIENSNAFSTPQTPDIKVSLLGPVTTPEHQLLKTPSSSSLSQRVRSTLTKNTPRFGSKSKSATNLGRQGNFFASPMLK

[10] = biological target: T6, Low molecular weight phosphotyrosine protein phosphatase (Homo sapiens, UniProt P24666); assay type: functional; conditions: read-out: IC50_Mean;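 note: Dose-response confirmation assay measuring inhibition of LMPTP enzyme activity by fluorescence intensity read-out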
T6 sequence (P24666 whole entry): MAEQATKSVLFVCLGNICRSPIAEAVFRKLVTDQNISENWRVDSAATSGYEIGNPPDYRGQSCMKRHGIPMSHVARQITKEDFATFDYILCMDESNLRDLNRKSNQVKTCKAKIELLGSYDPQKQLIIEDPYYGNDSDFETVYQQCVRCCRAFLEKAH

[11] = biological target: T7, Microphthalmia-associated transcription factor (Homo sapiens, UniProt O75030); experiment: TRPM1 promoter luciferase signal decrease, dose response, MITF inhibitor project, cell-based, SK-MEL-5, cherry-picked, set 3 (AID 493073); assay type: functional
T7 sequence (O75030 whole entry): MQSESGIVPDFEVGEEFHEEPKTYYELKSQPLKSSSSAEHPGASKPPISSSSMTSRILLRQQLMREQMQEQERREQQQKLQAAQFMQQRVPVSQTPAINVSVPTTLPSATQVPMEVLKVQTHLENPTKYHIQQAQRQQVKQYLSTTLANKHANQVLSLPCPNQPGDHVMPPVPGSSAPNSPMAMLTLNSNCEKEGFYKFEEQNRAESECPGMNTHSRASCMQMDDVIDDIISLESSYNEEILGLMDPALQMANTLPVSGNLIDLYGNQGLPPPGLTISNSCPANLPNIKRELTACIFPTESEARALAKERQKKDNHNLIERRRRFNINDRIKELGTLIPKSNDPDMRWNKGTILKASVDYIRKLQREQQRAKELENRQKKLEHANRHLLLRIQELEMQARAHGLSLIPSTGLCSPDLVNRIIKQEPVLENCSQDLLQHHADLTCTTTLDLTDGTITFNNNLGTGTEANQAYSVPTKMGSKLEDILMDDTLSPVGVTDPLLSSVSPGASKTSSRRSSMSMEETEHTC

[12] = biological target: T8, DNA repair and recombination protein RAD54-like (Homo sapiens, UniProt Q92698); experiment: inhibitors of human RAD54 branch migration, confirmation, biochemical, fluorescence, cherry-picked samples, dose series (AID 651657); assay type: functional
T8 sequence (Q92698 whole entry): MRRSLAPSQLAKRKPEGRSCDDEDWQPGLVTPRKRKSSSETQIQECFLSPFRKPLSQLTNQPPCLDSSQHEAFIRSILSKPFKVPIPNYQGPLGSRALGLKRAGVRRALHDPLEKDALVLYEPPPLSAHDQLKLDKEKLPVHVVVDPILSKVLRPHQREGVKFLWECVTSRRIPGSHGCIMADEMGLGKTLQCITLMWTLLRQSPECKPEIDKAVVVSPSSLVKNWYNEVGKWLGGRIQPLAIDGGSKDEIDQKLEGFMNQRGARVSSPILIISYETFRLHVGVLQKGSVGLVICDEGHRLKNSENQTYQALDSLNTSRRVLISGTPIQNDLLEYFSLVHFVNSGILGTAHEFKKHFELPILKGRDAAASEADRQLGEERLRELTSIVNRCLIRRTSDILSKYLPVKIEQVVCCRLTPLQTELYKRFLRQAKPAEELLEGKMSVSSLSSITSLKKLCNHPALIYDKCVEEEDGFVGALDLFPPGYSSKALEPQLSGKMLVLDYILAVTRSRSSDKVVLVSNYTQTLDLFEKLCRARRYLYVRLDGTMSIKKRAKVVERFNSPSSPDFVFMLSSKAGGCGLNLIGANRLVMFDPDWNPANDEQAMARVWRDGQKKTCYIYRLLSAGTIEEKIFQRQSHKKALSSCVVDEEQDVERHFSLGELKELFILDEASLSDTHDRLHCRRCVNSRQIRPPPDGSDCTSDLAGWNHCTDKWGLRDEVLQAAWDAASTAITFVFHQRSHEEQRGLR

[13] = biological target: T9, DNA repair protein RAD52 homolog (Homo sapiens, UniProt P43351); assay type: functional, biochemical
T9 sequence (P43351 whole entry): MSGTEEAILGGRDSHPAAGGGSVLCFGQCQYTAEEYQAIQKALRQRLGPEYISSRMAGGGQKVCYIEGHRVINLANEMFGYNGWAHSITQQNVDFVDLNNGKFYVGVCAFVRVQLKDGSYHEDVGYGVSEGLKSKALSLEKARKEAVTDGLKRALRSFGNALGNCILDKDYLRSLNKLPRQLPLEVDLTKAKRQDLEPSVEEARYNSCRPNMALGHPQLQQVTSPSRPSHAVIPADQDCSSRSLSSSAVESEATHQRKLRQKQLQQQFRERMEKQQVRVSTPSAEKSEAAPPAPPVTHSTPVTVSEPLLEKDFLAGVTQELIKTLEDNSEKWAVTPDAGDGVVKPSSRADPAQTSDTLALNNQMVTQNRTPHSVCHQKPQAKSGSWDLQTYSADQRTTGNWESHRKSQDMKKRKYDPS

[14] = inhibitors of Vif binding to APOBEC3G peptide, primary screen, biochemical, TR-FRET, GST-Vif 1-94, biotin-A3G peptide, dose response retest (AID 1117319); assay type: functional;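 note: TR-FRET signal of purified GST-Vif binding a biotinylated A3G peptide; inhibitors lower the FRET signal by blocking Vif and A3G binding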
[15] = biological target: Cytochrome P450 3A4 (Homo sapiens, UniProt P08684);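 note: CYP3A4 tested as one member of a cytochrome P450 panel screen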
Cytochrome P450 3A4, sequence (P08684 whole entry): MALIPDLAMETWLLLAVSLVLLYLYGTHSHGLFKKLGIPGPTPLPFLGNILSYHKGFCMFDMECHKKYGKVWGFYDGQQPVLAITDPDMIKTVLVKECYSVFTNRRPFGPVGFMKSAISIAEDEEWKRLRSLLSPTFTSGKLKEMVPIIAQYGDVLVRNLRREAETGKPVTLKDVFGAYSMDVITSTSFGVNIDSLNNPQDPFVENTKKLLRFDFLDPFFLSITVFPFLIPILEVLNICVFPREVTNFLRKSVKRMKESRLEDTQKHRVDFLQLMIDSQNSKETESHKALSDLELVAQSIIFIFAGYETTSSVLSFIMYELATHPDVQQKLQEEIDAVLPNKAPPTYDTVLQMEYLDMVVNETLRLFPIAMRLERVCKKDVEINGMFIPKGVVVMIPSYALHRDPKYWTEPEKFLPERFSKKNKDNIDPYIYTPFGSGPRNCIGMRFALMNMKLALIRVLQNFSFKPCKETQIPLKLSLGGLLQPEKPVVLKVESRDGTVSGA

For CC(=O)Nc1ccc(/C(C)=N/NC(=O)c2ccc(COc3ccccc3Cl)o2)cc1, the IC50 [1] was 7.9 µM (active), the IC50 [2] was 24.8 µM (active) and the IC50 [3] was > 100 µM (inactive). The IC50 [4] was 43.6 µM (active).

For O=C(O)CN1C(=O)/C(=C\c2ccc(OC(=O)c3ccco3)cc2)SC1=S, the AC50 [5] was 165 µM (active), the EC50 [6] was 20.3 µM (active) and the IC50 [2] was 25.4 µM (active). For the same molecule, the IC50 [3] was > 100 µM (inactive) and the IC50 [4] was 27.8 µM (active).

For O=C1NC(=S)N(c2ccccc2)C(=O)/C1=C/c1ccco1, the EC50 [7] was 32.7 µM (active), the IC50 [8] was 0.811 µM (active) and the IC50 [9] was 8.35 µM (active).

In the case of N=c1c(C(=O)NCc2ccco2)cc2c(=O)n3ccccc3nc2n1Cc1ccccc1, the IC50 [10] is reported as 28.4 µM (inactive).

With Cc1ccc(-c2nc(C(=O)NCCCN(C)C)cc3c2[nH]c2ccccc23)cc1 the AC50 [11] was 11.2 µM (active), the AC50 [12] was 10.9 µM (active) and the AC50 [13] was 2.77 µM (active).

In the case of CN1CCN(c2nc(-c3cccnc3)nc3ccccc23)CC1, the AC50 [12] is reported as 21.1 µM (active), the IC50 [14] is reported as > 100 µM (active) and the AC50 [15] is reported as 25.1 µM (inconclusive).

In the case of O=c1cc(CN2CCCCCCC2)c2ccccc2o1, the IC50 [10] is reported as 41.5 µM (inactive).
